From patent US8685992B2, “Histone deacetylase inhibitors based simultaneously on trisubstituted 1H-pyrroles and aromatic and heteroaromatic spacers” (Universidad del País Vasco, priority 2009, dated 2014)

Legend:
BGC823 = assay: Cancer cell growth inhibition, BGC823; type: cell-based, human; details: Homo sapiens, BGC-823; BGC823, Gastric Cancer, 72 h treatment
Protocol: (§1) Cell culture-based assays were used to evaluate the ability of compounds of the invention to inhibit cancer cell growth inhibition.
(§2) Cells were obtained from the American Type Culture Collection (ATCC). Cells were cultured at 37° C. with 5% CO2 in the appropriate growth medium (see table below), and harvested respectively during the logarithmic growth period and counted with hemocytometer. The cell viability was over 98% by trypan blue exclusion. Cell concentrations were adjusted between 5×10^4 and 2×10^5 cells/ml with respective medium.
(§3) Stock solutions of test compounds and positive drugs Doxorubicin (Zhejiang, Haizheng, China), Paclitaxel (Beijing, Xiehe, China), Vincristin (Shenzhen Wanle, China), 5-FU (Tianjin jinyaoanjisuan, China), Irinotecan (Jiangsu Hengrui, China) and Cisplatin Nanjing zhiyao, China) were prepared in dimethyl sulphoxide (DMSO) or PBS at 20 mM.
(§4) All treatments were performed in triplicate. 10 μl drug solution was added to each well and incubated for 72 hours. At the end of the incubation, 20 μl of the freshly prepared MTS/PMS mixture solution was added to each well and incubated for 4 hours at 37° C. in a humidified, 5% CO2 atmosphere. Absorbance was read at 490 nm using SpectraMAX Plus microplate spectrophotometer. […] In order to calculate IC50, a dose-responsive curve was fitted using nonlinear regression model with a sigmoidal dose response.

Colo205 = assay: Cancer cell growth inhibition, Colo205; type: cell-based; details: Homo sapiens, COLO 205; Colo205, Colorectal Cancer, 72 h treatment
Protocol: as §1, §2, §3, §4

SK-BR-3 = assay: Cancer cell growth inhibition, SK-BR-3; type: cell-based, human; details: Homo sapiens; SK-BR-3, Breast Cancer, 72 h treatment
Protocol: as §1, §2, §3, §4

Human HDAC6 = Human HDAC6 (Homo sapiens (Human), UniProt Q9UBN7); assay: HDAC6 fluorogenic peptide deacetylation assay; type: biochemical; details: human HDAC6, 50 μM substrate, 30° C., 2 h; read-out: IC50 (nM) of enzyme activity HDAC6
CNE2 = assay: Cancer cell growth inhibition, CNE2; type: cell-based, human; details: Homo sapiens, CNE-2; CNE2, Nasopharyngeal Cancer, 72 h treatment
Protocol: as §1, §2, §3, §4

A375 = assay: Cancer cell growth inhibition, A375; type: cell-based, human; details: Homo sapiens, A-375; A375, Melanoma, 72 h treatment
Protocol: as §1, §2, §3, §4

NCI-H460 = assay: Cancer cell growth inhibition, NCI-H460; type: cell-based, human; details: Homo sapiens; NCI-H460, Lung Cancer, 72 h treatment
Protocol: as §1, §2, §3, §4

MDA-MB-231 = assay: Cancer cell growth inhibition, MDA-MB-231; type: cell-based, human; details: Homo sapiens; MDA-MB-231, Breast Cancer, 72 h treatment
Protocol: as §1, §2, §3, §4

HepG2 = assay: Cancer cell growth inhibition, HepG2; type: cell-based, human; details: Homo sapiens; HepG2, Liver Cancer, 72 h treatment
Protocol: as §1, §2, §3, §4

SK-HEP-1 = assay: Cancer cell growth inhibition, SK-HEP-1; type: cell-based; details: Homo sapiens, SK-HEP1; SK-HEP-1, Liver Cancer, 72 h treatment
Protocol: as §1, §2, §3, §4

SK-OV-3 = assay: Cancer cell growth inhibition, SK-OV-3; type: cell-based, human; details: Homo sapiens; SK-OV-3, Ovarian Cancer, 72 h treatment
Protocol: as §1, §2, §3, §4

U87MG = assay: Cancer cell growth inhibition, U87MG; type: cell-based, human; details: Homo sapiens, U-87 MG, Glioblastoma, 72 h treatment
Protocol: as §1, §2, §3, §4

MCF-7 = assay: Cancer cell growth inhibition, MCF-7; type: cell-based, human; details: Homo sapiens, MCF7; MCF-7, Breast Cancer, 72 h treatment
Protocol: as §1, §2, §3, §4

A549 = assay: Cancer cell growth inhibition, A549; type: cell-based, human; details: Homo sapiens; A549, Lung Cancer, 72 h treatment
Protocol: as §1, §2, §3, §4

Calu-6 = assay: Cancer cell growth inhibition, Calu-6; type: cell-based, human; details: Homo sapiens; Calu-6, Lung Cancer, 72 h treatment
Protocol: as §1, §2, §3, §4

OVCAR3 = assay: Cancer cell growth inhibition, OVCAR3; type: cell-based, human; details: Homo sapiens, OVCAR-3; OVCAR3, Ovarian Cancer, 72 h treatment
Protocol: as §1, §2, §3, §4

HT-1080 = assay: Cancer cell growth inhibition, HT-1080; type: cell-based; details: Homo sapiens; HT-1080, Fibrosarcoma, 72 h treatment
Protocol: as §1, §2, §3, §4

RPMI-8226 = assay: Cancer cell growth inhibition, RPMI-8226; type: cell-based, human; details: Homo sapiens; RPMI-8226, Orthotopic Multiple Myeloma, 72 h treatment
Protocol: as §1, §2, §3, §4

HCT-116 = assay: Cancer cell growth inhibition, HCT-116; type: cell-based, human; details: Homo sapiens; HCT-116, Colorectal Cancer, 72 h treatment
Protocol: as §1, §2, §3, §4

NCI-H226 = assay: Cancer cell growth inhibition, NCI-H226; type: cell-based, human; details: Homo sapiens; NCI-H226, Lung Cancer, 72 h treatment
Protocol: as §1, §2, §3, §4

Human HDAC11 = Human HDAC11 (Homo sapiens (Human), UniProt Q96DB2); assay: HDAC11 fluorogenic peptide deacetylation assay; type: biochemical; details: human HDAC11, 50 μM substrate, 30° C., 2 h; read-out: IC50 (nM) of enzyme activity HDAC11
NCI-N87 = assay: Cancer cell growth inhibition, NCI-N87; type: cell-based, human; details: Homo sapiens; NCI-N87, Gastric Cancer, 72 h treatment
Protocol: as §1, §2, §3, §4

SW480 = assay: Cancer cell growth inhibition, SW480; type: cell-based, human; details: Homo sapiens; SW480, Colorectal Cancer, 72 h treatment
Protocol: as §1, §2, §3, §4

Human HDAC5 = Human HDAC5 (Homo sapiens (Human), UniProt Q9UQL6); assay: HDAC5 fluorogenic peptide deacetylation assay; type: biochemical; details: human HDAC5, 50 μM substrate, 30° C., 2 h; read-out: IC50 (nM) of enzyme activity HDAC5
Human HDAC9 = Human HDAC9 (Homo sapiens (Human), UniProt Q9UKV0); assay: HDAC9 fluorogenic peptide deacetylation assay; type: biochemical; details: human HDAC9, 50 μM substrate, 30° C., 2 h; read-out: IC50 (nM) of enzyme activity HDAC9
Human HDAC4 = Human HDAC4 (Homo sapiens (Human), UniProt P56524); assay: HDAC4 fluorogenic peptide deacetylation assay; type: biochemical; details: human HDAC4, 50 μM substrate, 30° C., 2 h; read-out: IC50 (nM) of enzyme activity HDAC4
Sequence of Human HDAC4 (P56524 627-1084 limits assumed): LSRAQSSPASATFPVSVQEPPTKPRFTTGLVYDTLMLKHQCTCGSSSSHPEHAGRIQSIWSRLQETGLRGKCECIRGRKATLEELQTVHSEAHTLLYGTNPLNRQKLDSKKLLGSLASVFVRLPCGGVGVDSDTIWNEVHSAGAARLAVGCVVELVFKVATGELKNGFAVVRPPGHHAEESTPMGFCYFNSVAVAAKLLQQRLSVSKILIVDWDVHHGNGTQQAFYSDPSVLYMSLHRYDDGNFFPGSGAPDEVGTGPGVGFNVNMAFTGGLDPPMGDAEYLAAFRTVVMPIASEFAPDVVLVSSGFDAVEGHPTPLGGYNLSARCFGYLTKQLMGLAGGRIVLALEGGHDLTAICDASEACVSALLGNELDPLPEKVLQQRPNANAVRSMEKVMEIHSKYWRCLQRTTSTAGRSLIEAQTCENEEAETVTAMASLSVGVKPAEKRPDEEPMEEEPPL

Sequence of Human HDAC9 (Q9UKV0 other isoform, or with tags, fused parts or gaps): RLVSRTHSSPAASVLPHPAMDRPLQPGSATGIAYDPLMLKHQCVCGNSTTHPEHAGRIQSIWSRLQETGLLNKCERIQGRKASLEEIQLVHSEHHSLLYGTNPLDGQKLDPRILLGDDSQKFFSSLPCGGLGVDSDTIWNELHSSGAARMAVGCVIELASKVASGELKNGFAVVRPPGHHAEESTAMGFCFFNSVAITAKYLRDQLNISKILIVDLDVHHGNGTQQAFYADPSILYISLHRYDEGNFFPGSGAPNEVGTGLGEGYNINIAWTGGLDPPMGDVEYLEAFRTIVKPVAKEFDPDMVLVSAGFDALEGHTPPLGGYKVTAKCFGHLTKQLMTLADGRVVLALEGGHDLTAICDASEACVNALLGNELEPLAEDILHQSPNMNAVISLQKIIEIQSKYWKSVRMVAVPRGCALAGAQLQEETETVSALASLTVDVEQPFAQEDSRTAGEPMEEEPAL
Sequence of Human HDAC5 (Q9UQL6 other isoform, or with tags, fused parts or gaps): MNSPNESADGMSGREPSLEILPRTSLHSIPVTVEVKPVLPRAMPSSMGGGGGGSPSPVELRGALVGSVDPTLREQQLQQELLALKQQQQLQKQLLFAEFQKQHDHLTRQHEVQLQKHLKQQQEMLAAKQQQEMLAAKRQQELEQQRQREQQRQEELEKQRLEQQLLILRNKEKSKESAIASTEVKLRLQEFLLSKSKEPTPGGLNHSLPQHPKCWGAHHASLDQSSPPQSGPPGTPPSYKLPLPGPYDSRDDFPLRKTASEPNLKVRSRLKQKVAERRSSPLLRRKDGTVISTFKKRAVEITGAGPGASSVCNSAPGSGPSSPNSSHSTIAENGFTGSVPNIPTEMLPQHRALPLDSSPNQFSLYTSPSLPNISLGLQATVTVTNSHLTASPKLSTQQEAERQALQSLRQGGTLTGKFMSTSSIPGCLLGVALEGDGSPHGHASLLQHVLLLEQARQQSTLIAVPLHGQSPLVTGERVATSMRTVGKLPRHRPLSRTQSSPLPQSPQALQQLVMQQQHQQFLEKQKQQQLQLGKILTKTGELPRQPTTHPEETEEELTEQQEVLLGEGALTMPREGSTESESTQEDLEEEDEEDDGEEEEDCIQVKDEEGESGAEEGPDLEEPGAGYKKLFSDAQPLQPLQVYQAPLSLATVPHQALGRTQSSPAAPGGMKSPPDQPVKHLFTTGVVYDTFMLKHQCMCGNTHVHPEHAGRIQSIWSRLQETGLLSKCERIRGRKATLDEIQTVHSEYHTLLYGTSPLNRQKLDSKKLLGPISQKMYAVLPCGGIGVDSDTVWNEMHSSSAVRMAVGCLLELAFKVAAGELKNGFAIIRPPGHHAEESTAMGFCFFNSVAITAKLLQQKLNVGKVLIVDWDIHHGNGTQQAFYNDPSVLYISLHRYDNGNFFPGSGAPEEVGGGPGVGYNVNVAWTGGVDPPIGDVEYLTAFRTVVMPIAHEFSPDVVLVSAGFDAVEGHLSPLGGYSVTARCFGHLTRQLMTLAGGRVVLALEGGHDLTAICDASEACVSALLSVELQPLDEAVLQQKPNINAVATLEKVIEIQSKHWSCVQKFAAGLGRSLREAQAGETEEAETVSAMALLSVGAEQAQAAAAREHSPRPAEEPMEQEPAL
Sequence of Human HDAC6 (Q9UBN7 whole entry): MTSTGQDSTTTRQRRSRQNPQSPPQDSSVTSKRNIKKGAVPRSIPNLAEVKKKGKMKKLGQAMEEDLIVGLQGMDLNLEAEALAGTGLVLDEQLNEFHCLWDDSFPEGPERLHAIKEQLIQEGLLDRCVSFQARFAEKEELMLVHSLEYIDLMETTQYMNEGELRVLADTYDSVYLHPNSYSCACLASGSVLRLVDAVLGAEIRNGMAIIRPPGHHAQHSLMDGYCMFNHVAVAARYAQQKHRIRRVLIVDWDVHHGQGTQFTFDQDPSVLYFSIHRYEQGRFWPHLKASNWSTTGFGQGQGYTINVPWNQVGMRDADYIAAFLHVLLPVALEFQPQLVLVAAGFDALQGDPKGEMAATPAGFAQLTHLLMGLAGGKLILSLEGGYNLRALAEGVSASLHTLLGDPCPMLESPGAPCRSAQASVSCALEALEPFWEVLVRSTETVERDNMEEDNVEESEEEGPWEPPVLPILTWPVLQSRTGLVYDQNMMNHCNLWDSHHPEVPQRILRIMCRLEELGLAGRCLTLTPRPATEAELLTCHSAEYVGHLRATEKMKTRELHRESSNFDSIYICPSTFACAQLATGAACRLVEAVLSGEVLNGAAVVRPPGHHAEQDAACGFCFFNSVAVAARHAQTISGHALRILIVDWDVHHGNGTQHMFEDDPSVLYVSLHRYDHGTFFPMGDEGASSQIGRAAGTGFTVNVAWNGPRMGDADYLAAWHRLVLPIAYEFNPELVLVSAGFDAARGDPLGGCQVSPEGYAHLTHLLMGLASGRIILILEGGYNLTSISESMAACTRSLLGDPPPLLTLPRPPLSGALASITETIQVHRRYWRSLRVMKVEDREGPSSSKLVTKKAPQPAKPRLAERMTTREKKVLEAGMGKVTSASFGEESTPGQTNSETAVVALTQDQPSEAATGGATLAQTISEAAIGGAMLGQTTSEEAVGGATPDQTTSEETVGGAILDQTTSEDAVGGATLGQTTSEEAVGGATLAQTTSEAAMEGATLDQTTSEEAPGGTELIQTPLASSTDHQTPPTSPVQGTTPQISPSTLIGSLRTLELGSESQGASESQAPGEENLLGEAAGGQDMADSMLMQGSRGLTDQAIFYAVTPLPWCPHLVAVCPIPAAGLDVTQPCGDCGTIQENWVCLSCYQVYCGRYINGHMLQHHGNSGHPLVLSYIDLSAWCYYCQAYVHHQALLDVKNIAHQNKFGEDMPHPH
Sequence of Human HDAC11 (Q96DB2 whole entry): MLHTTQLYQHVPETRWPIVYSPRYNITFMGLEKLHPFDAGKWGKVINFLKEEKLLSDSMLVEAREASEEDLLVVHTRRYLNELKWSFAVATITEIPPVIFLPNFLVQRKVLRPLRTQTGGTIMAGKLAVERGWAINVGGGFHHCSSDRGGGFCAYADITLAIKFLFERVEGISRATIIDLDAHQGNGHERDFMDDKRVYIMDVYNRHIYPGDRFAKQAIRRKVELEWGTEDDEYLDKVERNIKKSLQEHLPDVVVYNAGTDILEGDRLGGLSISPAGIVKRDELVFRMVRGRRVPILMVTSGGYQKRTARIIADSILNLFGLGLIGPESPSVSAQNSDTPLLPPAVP

Row | IC50 (BGC823) [µM] | IC50 (Colo205) [µM] | IC50 (SK-BR-3) [µM] | IC50 (Human HDAC6) [nM] | IC50 (CNE2) [µM] | IC50 (A375) [µM] | IC50 (NCI-H460) [µM] | IC50 (MDA-MB-231) [µM] | IC50 (HepG2) [µM] | IC50 (SK-HEP-1) [µM] | IC50 (SK-OV-3) [µM] | IC50 (U87MG) [µM] | IC50 (MCF-7) [µM] | IC50 (A549) [µM] | IC50 (Calu-6) [µM] | IC50 (OVCAR3) [µM] | IC50 (HT-1080) [µM] | IC50 (RPMI-8226) [µM] | IC50 (HCT-116) [µM] | IC50 (NCI-H226) [µM] | Compound | further results
1 | 9.68 | 4.91 | 1.5 | 6.8 | 9.54 | 10.2 | 10.5 | 4.25 | 5.01 | 4.47 | 4.17 | 10.8 | 4.49 | 11.4 | 9.61 | 9.99 | 1.84 | 1.31 | 1.99 | 11.9 | O=C(NO)c1ccc(CNC(=O)c2[nH]c(-c3ccoc3)cc2-c2ccc(O)cc2)cc1 [Example 9, 5-(3-furyl)-N-{4-[(hydroxyamino)carbonyl]benzyl}-3-(4-hydroxyphenyl)-1H-pyrrole-2-carboxamide] | –
2 | 0.676 | 0.248 | 0.771 | 1.6 | 0.59 | 1.04 | 1.68 | 1.49 | 0.498 | 1.1 | 1.67 | 1.39 | 0.377 | 1.02 | 0.492 | 0.904 | 0.161 | 0.0586 | 0.416 | 1.77 | COc1ccc(-c2cc(-c3ccoc3)c(C(=O)NCc3ccc(C(=O)NO)cc3)[nH]2)cc1 [Example 27, 3-(3-furyl)-N-{4-[(hydroxyamino)carbonyl]benzyl}-5-(4-methoxyphenyl)-1H-pyrrole-2-carboxamide] | IC50 (Human HDAC11): 341 nM; IC50 (NCI-N87): 0.153 µM; IC50 (SW480): 0.574 µM; IC50 (Human HDAC5): 222 nM; IC50 (Human HDAC9): 163 nM; IC50 (Human HDAC4): 1080 nM
3 | 13.7 | 1.56 | 0.335 | 0.44 | 11.4 | 7.7 | 26.7 | 4.07 | 2.01 | 1.75 | 1.63 | 9.35 | 10.1 | 11 | 4.07 | 25.2 | 1.53 | 0.336 | 0.0804 | 21.3 | O=C(NO)c1ccc(CNC(=O)c2[nH]c(-c3ccc(O)cc3)cc2-c2ccsc2)cc1 [Example 14, N-{4-[(hydroxyamino)carbonyl]benzyl}-5-(4-hydroxyphenyl)-3-(3-thienyl)-1H-pyrrole-2-carboxamide] | IC50 (Human HDAC11): 319 nM; melting point: 121 to 122 °C; IC50 (Human HDAC5): 172 nM; IC50 (Human HDAC9): 277 nM; IC50 (Human HDAC4): 956 nM
4 | 5.14 | 0.365 | 0.453 | – | 16.1 | 3.68 | 6.29 | 1.83 | 2.28 | 0.45 | 0.651 | 6.56 | 2.09 | 2.46 | 1.22 | 8.05 | 0.594 | 0.426 | 0.082 | 3.05 | O=C(NO)c1ccc(CNC(=O)c2[nH]c(-c3ccc(O)cc3)cc2-c2ccoc2)cc1 [Example 15, 3-(3-furyl)-N-{4-[(hydroxyamino)carbonyl]benzyl}-5-(4-hydroxyphenyl)-1H-pyrrole-2-carboxamide] | IC50 (Human HDAC11): 72 nM; IC50 (Human HDAC5): 60 nM; IC50 (Human HDAC9): 59 nM; IC50 (Human HDAC4): 338 nM
5 | 7.79 | 3.1 | 4.08 | 2 | 5.01 | 4.27 | 12.1 | 73.8 | 1.77 | 9.93 | 8.43 | 8.96 | 2.77 | 3.43 | 0.726 | 4.76 | 1.09 | 0.462 | 1.46 | 12.6 | COc1ccc(-c2cc(-c3ccsc3)c(C(=O)NCc3ccc(C(=O)NO)cc3)[nH]2)cc1 [Example 28, N-{4-[(hydroxyamino)carbonyl]benzyl}-5-(4-methoxyphenyl)-3-(3-thienyl)-1H-pyrrole-2-carboxamide] | IC50 (Human HDAC11): 718 nM; IC50 (NCI-N87): 1.48 µM; IC50 (SW480): 2.38 µM; IC50 (Human HDAC5): 640 nM; IC50 (Human HDAC9): 478 nM; IC50 (Human HDAC4): 2430 nM
